Holding throughout (type): biochemical
The target in one test is T1, Lck (Homo sapiens, UniProt P06239).
T1 construct: Kinases are expressed as either kinase domains or full length constructs; made in house
Kind of test: Kinase inhibition assay (33P transfer), Lck. The conditions noted are these: Table 3, class symbols; read-out: Lck-1. The method, boiled down:
(§1)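 Enzyme activity is taken as the amount of 33PO4 moved from ATP onto poly(Glu, Tyr) 4:1 or poly(Arg, Ser) 3:1 fixed to the plate surface. Unbound label is removed with 0.5% phosphoric acid before scintillation counting.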

A further test concerns the target T2, Zap-70 (Homo sapiens, UniProt P43403).
T2 construct: Kinases are expressed as either kinase domains or full length constructs; made in house
T2 sequence (P43403 1-619): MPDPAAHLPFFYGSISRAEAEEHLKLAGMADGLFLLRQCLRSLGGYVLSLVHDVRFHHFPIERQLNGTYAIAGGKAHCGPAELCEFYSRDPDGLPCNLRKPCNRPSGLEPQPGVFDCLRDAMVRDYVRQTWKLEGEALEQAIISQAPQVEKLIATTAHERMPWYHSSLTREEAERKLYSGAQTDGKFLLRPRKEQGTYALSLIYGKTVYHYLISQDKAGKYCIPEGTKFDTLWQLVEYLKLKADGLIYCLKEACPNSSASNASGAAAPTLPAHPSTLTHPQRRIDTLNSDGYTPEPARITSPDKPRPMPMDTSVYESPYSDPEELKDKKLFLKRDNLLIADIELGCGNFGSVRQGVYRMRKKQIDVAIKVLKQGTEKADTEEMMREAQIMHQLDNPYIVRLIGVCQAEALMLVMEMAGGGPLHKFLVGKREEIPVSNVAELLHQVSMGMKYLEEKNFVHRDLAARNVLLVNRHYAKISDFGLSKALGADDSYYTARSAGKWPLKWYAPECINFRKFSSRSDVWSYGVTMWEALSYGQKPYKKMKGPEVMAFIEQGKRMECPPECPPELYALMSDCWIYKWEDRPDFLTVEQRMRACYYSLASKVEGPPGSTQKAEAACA
Kind of test: Kinase inhibition assay (33P transfer), Zap-70. To be noted: Table 3, class symbols; read-out: Zap-1. A digest of the protocol:
as §1

A further test concerns the target T3, Itk (Homo sapiens, UniProt Q08881).
T3 construct: Kinases are expressed as either kinase domains or full length constructs; made in house
T3 sequence (Q08881 1-620): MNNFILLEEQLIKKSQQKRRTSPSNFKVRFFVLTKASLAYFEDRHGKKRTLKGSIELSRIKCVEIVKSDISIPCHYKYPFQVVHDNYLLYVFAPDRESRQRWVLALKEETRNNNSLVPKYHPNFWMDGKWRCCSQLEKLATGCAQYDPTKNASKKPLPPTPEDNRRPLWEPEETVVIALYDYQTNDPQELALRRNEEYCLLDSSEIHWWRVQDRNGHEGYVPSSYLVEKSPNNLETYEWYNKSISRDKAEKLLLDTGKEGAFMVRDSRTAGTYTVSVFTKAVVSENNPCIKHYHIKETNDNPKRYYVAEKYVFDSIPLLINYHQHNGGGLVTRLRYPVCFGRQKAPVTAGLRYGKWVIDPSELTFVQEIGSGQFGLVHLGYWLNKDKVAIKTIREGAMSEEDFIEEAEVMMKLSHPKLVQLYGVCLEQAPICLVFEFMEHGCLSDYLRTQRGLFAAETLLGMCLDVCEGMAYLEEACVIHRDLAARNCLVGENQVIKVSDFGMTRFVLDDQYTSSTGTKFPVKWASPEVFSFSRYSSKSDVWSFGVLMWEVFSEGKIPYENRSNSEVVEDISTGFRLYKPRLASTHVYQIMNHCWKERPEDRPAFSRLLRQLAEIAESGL
The experiment in a line: Kinase inhibition assay (33P transfer), Itk. To be noted: Table 3, class symbols; read-out: Itk-1. The method, boiled down:
(§2)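 Recombinant kinase domains or full-length GST- or His-tagged constructs, from E. coli or baculovirus/High Five cells, sometimes with regulatory polypeptides. Transfer of 33P from ATP to plate-bound poly(Glu,Tyr) 4:1 or poly(Arg,Ser) 3:1 counted by liquid scintillation after phosphoric acid wash; IC50 is the concentration halving incorporation.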

For a further test, the target named is T4, EGFR (Homo sapiens, UniProt P00533).
T4 construct: Kinases are expressed as either kinase domains or full length constructs; made in house
Kind of test: Kinase inhibition assay (33P transfer), EGFR. To be noted: Table 2, class symbols A-E; read-out: EGFR-1. A digest of the protocol: as §2

The target in the next test is T5, ErbB2 (Homo sapiens, UniProt P04626).
T5 construct: Kinases are expressed as either kinase domains or full length constructs; made in house
T5 sequence (P04626 23-1255, species assumed): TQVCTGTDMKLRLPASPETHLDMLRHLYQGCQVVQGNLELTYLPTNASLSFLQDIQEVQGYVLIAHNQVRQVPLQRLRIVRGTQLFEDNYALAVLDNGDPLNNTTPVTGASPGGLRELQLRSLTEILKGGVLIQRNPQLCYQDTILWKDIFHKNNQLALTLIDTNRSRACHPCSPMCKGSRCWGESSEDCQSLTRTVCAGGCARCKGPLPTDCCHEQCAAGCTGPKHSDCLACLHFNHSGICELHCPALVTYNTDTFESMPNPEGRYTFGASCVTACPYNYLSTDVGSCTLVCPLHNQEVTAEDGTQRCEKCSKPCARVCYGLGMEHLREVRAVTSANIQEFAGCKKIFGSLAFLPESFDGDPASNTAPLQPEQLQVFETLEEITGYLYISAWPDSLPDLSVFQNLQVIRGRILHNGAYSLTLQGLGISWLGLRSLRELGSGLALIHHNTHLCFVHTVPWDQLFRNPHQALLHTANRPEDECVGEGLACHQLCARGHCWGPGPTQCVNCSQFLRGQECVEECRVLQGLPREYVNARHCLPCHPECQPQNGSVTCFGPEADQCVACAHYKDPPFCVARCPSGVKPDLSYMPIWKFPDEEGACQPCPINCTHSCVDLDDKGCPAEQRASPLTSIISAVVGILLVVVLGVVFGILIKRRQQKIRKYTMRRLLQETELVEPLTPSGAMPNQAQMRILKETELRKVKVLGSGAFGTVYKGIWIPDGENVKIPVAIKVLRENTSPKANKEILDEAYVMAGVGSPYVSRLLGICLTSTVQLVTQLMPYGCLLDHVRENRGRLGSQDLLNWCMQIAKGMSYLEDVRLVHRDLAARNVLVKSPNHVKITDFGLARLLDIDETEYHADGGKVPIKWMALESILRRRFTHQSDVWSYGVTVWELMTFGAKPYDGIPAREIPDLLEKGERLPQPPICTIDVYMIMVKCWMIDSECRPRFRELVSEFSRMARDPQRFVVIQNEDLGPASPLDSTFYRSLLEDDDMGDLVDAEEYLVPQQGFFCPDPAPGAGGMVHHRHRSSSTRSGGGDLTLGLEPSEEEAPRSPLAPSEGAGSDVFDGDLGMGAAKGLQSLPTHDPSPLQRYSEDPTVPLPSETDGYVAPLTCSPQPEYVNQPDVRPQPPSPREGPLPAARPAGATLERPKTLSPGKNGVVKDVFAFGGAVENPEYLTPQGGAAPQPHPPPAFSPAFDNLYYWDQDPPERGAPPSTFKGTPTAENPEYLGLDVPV
The experiment in a line: Kinase inhibition assay (33P transfer), ErbB2. The conditions noted are these: read-out: ErbB2-2. A digest of the protocol: as §2

The next test concerns the target T6, Kdr (Homo sapiens, UniProt P35968).
T6 construct: Kinases are expressed as either kinase domains or full length constructs; made in house
The experiment in a line: Kinase inhibition assay (33P transfer), Kdr. The conditions noted are these: Table 3, class symbols; read-out: KDR-1. A digest of the protocol:
as §1

In another test the target is T7, c-Met (Homo sapiens, UniProt P08581).
T7 construct: Kinases are expressed as either kinase domains or full length constructs; made in house
T7 sequence (P08581 25-1390): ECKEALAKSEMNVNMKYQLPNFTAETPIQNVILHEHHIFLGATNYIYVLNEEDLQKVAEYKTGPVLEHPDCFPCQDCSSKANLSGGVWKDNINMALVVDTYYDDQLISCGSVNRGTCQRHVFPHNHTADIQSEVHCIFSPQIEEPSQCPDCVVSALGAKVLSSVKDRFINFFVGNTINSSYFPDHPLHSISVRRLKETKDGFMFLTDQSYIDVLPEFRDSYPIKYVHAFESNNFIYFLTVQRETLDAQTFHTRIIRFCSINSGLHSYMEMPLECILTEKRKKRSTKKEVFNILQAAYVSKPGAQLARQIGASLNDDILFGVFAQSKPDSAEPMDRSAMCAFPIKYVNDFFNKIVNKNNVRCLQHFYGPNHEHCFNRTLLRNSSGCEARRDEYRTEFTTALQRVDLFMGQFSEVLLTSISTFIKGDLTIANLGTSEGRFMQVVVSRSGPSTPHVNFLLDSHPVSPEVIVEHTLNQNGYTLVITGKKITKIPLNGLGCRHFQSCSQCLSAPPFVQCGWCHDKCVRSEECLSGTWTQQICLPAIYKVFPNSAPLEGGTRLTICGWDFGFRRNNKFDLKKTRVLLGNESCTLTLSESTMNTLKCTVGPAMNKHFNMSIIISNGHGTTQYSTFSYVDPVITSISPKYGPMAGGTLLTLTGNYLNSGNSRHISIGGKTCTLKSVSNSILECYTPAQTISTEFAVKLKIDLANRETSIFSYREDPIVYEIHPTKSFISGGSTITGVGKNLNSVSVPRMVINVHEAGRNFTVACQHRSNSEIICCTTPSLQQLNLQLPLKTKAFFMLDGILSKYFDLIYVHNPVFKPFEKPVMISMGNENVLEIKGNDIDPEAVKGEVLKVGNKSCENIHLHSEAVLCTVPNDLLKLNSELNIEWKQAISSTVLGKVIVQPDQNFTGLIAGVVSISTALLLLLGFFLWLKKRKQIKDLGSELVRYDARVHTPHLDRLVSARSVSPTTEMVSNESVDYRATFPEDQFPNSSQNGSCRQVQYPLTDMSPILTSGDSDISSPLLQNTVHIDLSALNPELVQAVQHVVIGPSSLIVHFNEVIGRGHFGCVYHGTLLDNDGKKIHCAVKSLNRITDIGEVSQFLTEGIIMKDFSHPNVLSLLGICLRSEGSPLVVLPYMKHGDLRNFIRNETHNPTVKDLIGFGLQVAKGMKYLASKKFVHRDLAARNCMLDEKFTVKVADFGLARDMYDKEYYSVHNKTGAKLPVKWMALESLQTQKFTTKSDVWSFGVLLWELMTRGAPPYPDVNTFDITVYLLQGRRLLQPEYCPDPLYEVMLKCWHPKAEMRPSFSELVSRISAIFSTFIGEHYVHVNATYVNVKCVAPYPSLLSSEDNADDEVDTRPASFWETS
Kind of test: Kinase inhibition assay (33P transfer), c-Met. The conditions noted are these: Table 2, class symbols A-E; read-out: Met-1. A digest of the protocol:
as §2

A further test deals with T8, AKT (Homo sapiens, UniProt Q9Y243).
T8 construct: Kinases are expressed as either kinase domains or full length constructs; made in house
T8 sequence (Q9Y243 whole entry, the tested form may be a part): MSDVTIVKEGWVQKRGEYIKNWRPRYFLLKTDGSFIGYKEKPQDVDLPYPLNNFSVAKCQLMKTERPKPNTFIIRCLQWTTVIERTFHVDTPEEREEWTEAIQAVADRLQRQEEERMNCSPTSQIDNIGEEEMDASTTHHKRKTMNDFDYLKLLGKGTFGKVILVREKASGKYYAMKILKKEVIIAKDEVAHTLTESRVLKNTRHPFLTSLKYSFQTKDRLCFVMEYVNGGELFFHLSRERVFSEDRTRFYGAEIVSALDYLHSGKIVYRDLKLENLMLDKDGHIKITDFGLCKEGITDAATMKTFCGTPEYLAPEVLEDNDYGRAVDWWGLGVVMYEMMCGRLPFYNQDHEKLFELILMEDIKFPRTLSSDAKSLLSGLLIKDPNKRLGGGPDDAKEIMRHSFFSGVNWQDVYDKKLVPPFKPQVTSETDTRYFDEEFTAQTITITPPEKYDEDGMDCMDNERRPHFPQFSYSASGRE
The experiment in a line: Kinase inhibition assay (33P transfer), AKT. To be noted: Table 2, class symbols A-E; read-out: AKT3-1. A digest of the protocol: as §1

Another test has as its target T9, IGFR-1 (Homo sapiens, UniProt P08069).
T9 construct: Kinases are expressed as either kinase domains or full length constructs; made in house
Kind of test: Kinase inhibition assay (33P transfer), IGFR-1. The conditions noted are these: Table 2, class symbols A-E.

pIC50: −log10 of the molar value. Where only a bound is given, the exact number is not on record here.

Here are results for 15 molecules from patent US7074789B2, “Kinase inhibitors” (Amgen Inc., priority 1999, dated 2006).

T9 sequence (P08069 31-1367): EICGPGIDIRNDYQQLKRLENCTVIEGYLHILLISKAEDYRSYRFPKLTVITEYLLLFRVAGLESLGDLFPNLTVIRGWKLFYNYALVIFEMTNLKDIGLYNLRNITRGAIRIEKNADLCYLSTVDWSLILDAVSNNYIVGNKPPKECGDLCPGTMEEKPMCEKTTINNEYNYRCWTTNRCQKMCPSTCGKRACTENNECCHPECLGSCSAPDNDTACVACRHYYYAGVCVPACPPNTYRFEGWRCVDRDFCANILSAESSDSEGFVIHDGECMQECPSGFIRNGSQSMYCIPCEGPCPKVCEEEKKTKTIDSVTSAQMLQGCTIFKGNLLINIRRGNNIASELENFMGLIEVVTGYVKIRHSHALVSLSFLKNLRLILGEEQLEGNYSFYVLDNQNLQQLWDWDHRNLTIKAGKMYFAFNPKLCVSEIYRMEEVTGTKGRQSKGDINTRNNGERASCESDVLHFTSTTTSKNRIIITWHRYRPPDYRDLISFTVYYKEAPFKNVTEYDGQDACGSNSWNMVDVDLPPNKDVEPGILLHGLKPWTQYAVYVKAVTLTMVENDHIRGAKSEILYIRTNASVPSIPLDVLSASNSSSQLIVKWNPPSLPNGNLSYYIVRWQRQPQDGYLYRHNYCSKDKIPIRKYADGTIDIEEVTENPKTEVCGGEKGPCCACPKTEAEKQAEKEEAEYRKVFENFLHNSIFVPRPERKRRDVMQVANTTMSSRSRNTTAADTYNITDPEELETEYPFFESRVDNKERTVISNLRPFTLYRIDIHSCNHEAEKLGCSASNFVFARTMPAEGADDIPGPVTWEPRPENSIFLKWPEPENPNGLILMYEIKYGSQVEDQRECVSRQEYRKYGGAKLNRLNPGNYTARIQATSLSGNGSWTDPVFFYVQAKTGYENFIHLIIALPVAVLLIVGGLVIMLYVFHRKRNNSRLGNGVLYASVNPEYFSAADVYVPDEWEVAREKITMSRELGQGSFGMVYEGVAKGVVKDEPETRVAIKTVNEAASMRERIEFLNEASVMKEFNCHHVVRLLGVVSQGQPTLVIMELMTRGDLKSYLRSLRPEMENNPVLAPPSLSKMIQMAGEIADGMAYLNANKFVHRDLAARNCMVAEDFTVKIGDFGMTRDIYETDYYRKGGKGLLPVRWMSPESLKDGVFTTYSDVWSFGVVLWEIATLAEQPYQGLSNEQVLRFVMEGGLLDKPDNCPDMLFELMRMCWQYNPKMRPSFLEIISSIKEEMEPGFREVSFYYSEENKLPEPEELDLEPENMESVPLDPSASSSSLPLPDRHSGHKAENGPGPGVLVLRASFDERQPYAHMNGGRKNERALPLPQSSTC
T1 sequence (P06239 whole entry, species assumed, the tested form may be a part): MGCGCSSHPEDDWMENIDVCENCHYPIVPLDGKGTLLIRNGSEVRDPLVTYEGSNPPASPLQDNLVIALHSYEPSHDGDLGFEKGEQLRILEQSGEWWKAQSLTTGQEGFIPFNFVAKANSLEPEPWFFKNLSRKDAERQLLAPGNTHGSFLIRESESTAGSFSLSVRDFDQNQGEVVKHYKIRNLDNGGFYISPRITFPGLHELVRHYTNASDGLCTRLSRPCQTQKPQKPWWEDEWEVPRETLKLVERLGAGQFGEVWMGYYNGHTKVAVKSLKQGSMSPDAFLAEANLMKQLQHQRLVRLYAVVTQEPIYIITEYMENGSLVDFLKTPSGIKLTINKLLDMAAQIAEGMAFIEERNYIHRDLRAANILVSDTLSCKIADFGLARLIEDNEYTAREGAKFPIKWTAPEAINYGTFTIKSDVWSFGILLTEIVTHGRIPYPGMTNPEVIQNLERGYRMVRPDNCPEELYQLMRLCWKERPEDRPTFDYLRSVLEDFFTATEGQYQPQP

Take `COc1ccc(Nc2ncnc(NCC(=O)c3ccccc3)n2)cc1OC` [Compound 857]: the pIC50 was less than 4.91 at Lck; less than 4.91 on Zap-70; less than 4.91 at Itk; 5.02 to 5.18 on EGFR; 5.02 to 5.18 at ErbB2; less than 4.91 at Kdr. Moreover, the pIC50 on c-Met, on AKT and at IGFR-1 was less than 4.91 throughout.

Consider `COc1ccc(Nc2ncnc(NCc3ncc(C(F)(F)F)cc3Cl)n2)cc1OC` [Compound 858], for which the pIC50 on Lck is less than 4.99; on Zap-70, less than 4.99; on Itk, less than 4.99; at EGFR, 5.10 to 5.26; on ErbB2, less than 4.99; on Kdr, less than 4.99. Moreover, the pIC50 on c-Met, at AKT and against IGFR-1 was less than 4.99 in each case.

For `COc1ccc(Nc2ncnc(NCCc3ccc(Cl)c(Cl)c3)n2)cc1OC` [Compound 859], the pIC50 on Lck is less than 4.97; at Zap-70, 5.24 to 6.02; on Itk it was 5.24 to 6.02; on EGFR, 5.24 to 6.02; on ErbB2, 5.24 to 6.02; on Kdr, 5.08 to 5.24. Also, the values for the pIC50 on c-Met, on AKT and on IGFR-1 were 5.24 to 6.02, 5.24 to 6.02 and 5.08 to 5.24, respectively.

Take `COc1ccc(Nc2ncnc(N(C)c3ccc(C(=O)O)cc3)n2)cc1OC` [Compound 860]: the pIC50 is less than 4.93 on Lck; less than 4.93 on Zap-70; less than 4.93 on Itk; less than 4.93 at EGFR; 4.93 to 5.04 on ErbB2; 5.04 to 5.20 on Kdr. Further, the values for the pIC50 on c-Met, on AKT and against IGFR-1 were 5.20 to 5.98, less than 4.93 and 5.04 to 5.20, respectively.

In the case of `COc1ccc(Nc2ncnc(N(C)C3CCN(C)CC3)n2)cc1OC` [Compound 861], the pIC50 on Lck was less than 4.90; at Zap-70 it was less than 4.90; at Itk, less than 4.90; on EGFR, less than 4.90; at ErbB2, 5.01 to 5.17; at Kdr it was less than 4.90. Moreover, the pIC50 at c-Met, at AKT and against IGFR-1 was less than 4.90 throughout.

In the case of `COc1ccc(Nc2ncnc(N(C)c3ccc([N+](=O)[O-])cc3)n2)cc1OC` [Compound 862], the pIC50 was less than 4.93 at Lck; less than 4.93 at Zap-70; less than 4.93 on Itk; 5.20 to 5.98 on EGFR; less than 4.93 on ErbB2; less than 4.93 at Kdr. The pIC50 is greater than 5.98 on c-Met, less than 4.93 on AKT and less than 4.93 on IGFR-1.

On to `COc1ccc(N(C)c2ncnc(Nc3ccc(OC)c(OC)c3)n2)cc1` [Compound 863], for which the pIC50 at Lck was 5.18 to 5.96; on Zap-70, less than 4.91; on Itk, less than 4.91; on EGFR, greater than 5.96; on ErbB2, 5.02 to 5.18; on Kdr, 5.18 to 5.96. Further, the values for the pIC50 at c-Met, at AKT and on IGFR-1 were 5.18 to 5.96, less than 4.91 and less than 4.91, respectively.

For `COC(=O)c1ccc(N(C)c2ncnc(Nc3ccc(OC)c(OC)c3)n2)cc1` [Compound 864], the pIC50 at Lck is less than 4.94; on Zap-70, less than 4.94; at Itk, less than 4.94; at EGFR it was less than 4.94; at ErbB2 it was less than 4.94; at Kdr, 5.22 to 5.99. The pIC50 on c-Met is greater than 5.99; on AKT, less than 4.94; on IGFR-1, less than 4.94.

With `COc1ccc(Nc2ncnc(N(C)c3ccccc3Cl)n2)cc1OC` [Compound 865], the pIC50 at Lck was 5.19 to 5.97; on Zap-70 it was less than 4.92; at Itk it was less than 4.92; at EGFR, greater than 5.97; on ErbB2, 5.19 to 5.97; on Kdr it was 5.03 to 5.19. Besides, the pIC50 on c-Met was 5.19 to 5.97; at AKT it was less than 4.92; against IGFR-1 it was less than 4.92.

For `COC(=O)c1cccc(Nc2ncnc(-n3c(NCc4ccccc4)nc4ccccc43)n2)c1` [Compound 1067], the pIC50 on Lck was less than 5.00; on Zap-70, less than 5.00; at Itk, less than 5.00; on EGFR it was 5.27 to 6.05; on ErbB2, 5.27 to 6.05; at Kdr, greater than 6.05. Also, the pIC50 at c-Met, on AKT and at IGFR-1 was less than 5.00 throughout.

Take `COC(=O)c1cccc(Nc2ncnc(-n3c(NCc4ccc(OC)cc4)nc4ccccc43)n2)c1` [Compound 1068]: the pIC50 is less than 5.03 at Lck; less than 5.03 at Zap-70; less than 5.03 on Itk; less than 5.03 on EGFR; 5.14 to 5.30 on ErbB2; greater than 6.08 at Kdr. Moreover, the pIC50 at c-Met, on AKT and at IGFR-1 was less than 5.03 throughout.

For the molecule `COc1cc(Nc2ncnc(-c3cccnc3N[C@H](C)c3ccccc3)n2)cc(OC)c1OC` [Compound 1110], the pIC50 at Lck is greater than 6.06; on Zap-70, less than 5.01; on Itk it was less than 5.01; at EGFR, 5.28 to 6.06; at ErbB2, less than 5.01; at Kdr it was 5.12 to 5.28. Further, the pIC50 at c-Met, at AKT and against IGFR-1 was less than 5.01 throughout.

With `COc1cc(Nc2ncnc(-c3cccnc3N[C@@H](C)c3ccccc3)n2)cc(OC)c1OC` [Compound 1111], the pIC50 at Lck is greater than 6.06; at Zap-70, less than 5.01; on Itk, less than 5.01; at EGFR it was 5.28 to 6.06; at ErbB2, 5.12 to 5.28; on Kdr, greater than 6.06. For the same molecule, the pIC50 on c-Met, on AKT and against IGFR-1 was less than 5.01 in each case.

In the case of `CC(C)Nc1ncccc1-c1ncnc(Nc2ccc(N3CCOCC3)cc2)n1` [Compound 1112], the pIC50 was 5.21 to 5.99 at Lck; less than 4.94 on Zap-70; 4.94 to 5.05 at Itk; 5.21 to 5.99 on EGFR; 5.21 to 5.99 at ErbB2; greater than 5.99 at Kdr. Moreover, the results for the pIC50 on c-Met, on AKT and at IGFR-1 were 5.21 to 5.99, less than 4.94 and less than 4.94, respectively.

As to `c1ccc(Nc2ncccc2-c2ncnc(Nc3ccc(N4CCOCC4)cc3)n2)cc1` [Compound 1113], the pIC50 was 5.08 to 5.25 on Lck; 5.25 to 6.03 on Zap-70; less than 4.98 at Itk; 5.25 to 6.03 on EGFR; 5.25 to 6.03 on ErbB2; 5.25 to 6.03 on Kdr. Further, the pIC50 on c-Met was 5.25 to 6.03; on AKT it was less than 4.98; at IGFR-1, less than 4.98.
